Measured values taken from the supplement of paper PMC11061612.

Tests used:
[1] = tested on: CAL-39 (Other Solid Carcinomas); experiment: Bliss excess, mean over the matrix (fraction); higher = more synergy
Outline: (§1)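 Cell lines in DMEM/F12 or RPMI with 10% FBS were plated in 1536-well plates, held 24 hours at 37°C, 5% CO2, then given two-drug dose matrices for 72 hours (DMSO typically 0.2%). Viability was read by CellTiter-Glo 2.0 luminescence and scaled as inhibition from 0 (vehicle wells) to 1 (blank wells). Combination Emax is the second-highest inhibition in the matrix; Bliss excess is observed combination effect minus expected EA + EB − EA·EB, EA and EB being single-agent effects.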

[2] = tested on: D-283MED (Other Solid Carcinomas); experiment: as above
Outline: as §1

[3] = tested on: FU-OV-1 (Ovarian Carcinoma); experiment: as above
Outline: as §1

[4] = tested on: HCT-116 (Colorectal Carcinoma); experiment: as above
Outline: as §1

[5] = tested on: NCI-H1688 (Small Cell Lung Carcinoma); experiment: as above
Outline: as §1

[6] = tested on: P31-FUJ (Acute Myeloid Leukemia); experiment: as above
Outline: as §1

[7] = tested on: SK-UT-1 (Other Solid Carcinomas); experiment: as above
Outline: as §1

[8] = tested on: SLVL (B-Cell Non-Hodgkin's Lymphoma); experiment: as above
Outline: as §1

[9] = tested on: SW48 (Colorectal Carcinoma); experiment: as above
Outline: as §1

Saos-2 (Osteosarcoma) = experiment: as above
Outline: as §1

[10] = tested on: TC-YIK (Other Solid Carcinomas); experiment: as above
Outline: as §1

[11] = tested on: U-118-MG (Low Grade Glioma); experiment: as above
Outline: as §1

[12] = tested on: WSU-DLCL2 (B-Cell Non-Hodgkin's Lymphoma); experiment: as above
Outline: as §1

[13] = tested on: FU-OV-1 (Ovarian Carcinoma); experiment: combination Emax (second highest fraction inhibited in the dose matrix, 72 h); higher = more inhibition; extreme values may be limits of the assay
Outline: as §1

[14] = tested on: TC-YIK (Other Solid Carcinomas); experiment: as above
Outline: as §1

[15] = tested on: EKVX (Non-Small Cell Lung Carcinoma); experiment: Bliss excess, mean over the matrix (fraction); higher = more synergy
Outline: as §1
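Wherever Bliss excess, mean over the matrix is given: after 72 h of two-drug dosing.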

Row | SMILES | Bliss excess [1] | Bliss excess [2] | Bliss excess [3] | Bliss excess [4] | Bliss excess [5] | Bliss excess [6] | Bliss excess [7] | Bliss excess [8] | Bliss excess [9] | Bliss excess (Saos-2 (Osteosarcoma)) | Bliss excess [10] | Bliss excess [11] | Bliss excess [12] | combination Emax [13] | combination Emax [14] | Bliss excess [15]
1 | CC(=O)c1c(C)c2cnc(Nc3ccc(N4CCNCC4)cn3)nc2n(C2CCCC2)c1=O [Palbociclib] + Cc1c2c(nn1C)CSCc1cc(n(C)n1)CSc1cc(c3ccccc3c1)OCCCc1c(C(=O)O)n(C)c3c-2c(Cl)ccc13 [AZD5991] (first compound max 10 µM, 7x7, partner max 1 µM) | 0.0054 | 0.0099 | -0.0538 | -0.0075 | 0.0284 | -0.11 | 0.0096 | -0.0393 | 0.0255 | -0.0197 | -0.0144 | -0.0201 | -0.0052 | 0.235 | 0.547 | 
2 | CC(=O)c1c(C)c2cnc(Nc3ccc(N4CCNCC4)cn3)nc2n(C2CCCC2)c1=O [Palbociclib] + Cn1cnc2c(F)c(Nc3ccc(Br)cc3Cl)c(C(=O)NOCCO)cc21 [Selumetinib] (first compound max 10 µM, 7x7, partner max 10 µM) | 0.151 | 0.0045 | 0.0004 | 0.0697 | -0.0471 | 0.0152 | -0.033 | -0.0355 | 0.0668 | -0.0402 | 0.001 | -0.0114 | -0.0194 | 0.4 | 0.729 | 
3 | CCc1c2c(nc3ccc(O)cc13)-c1cc3c(c(=O)n1C2)COC(=O)[C@]3(O)CC [SN-38] + O=C(c1cc(Cc2n[nH]c(=O)c3ccccc23)ccc1F)N1CCN(C(=O)C2CC2)CC1 [Olaparib] (first compound max 0.3 µM, 7x7, partner max 10 µM) | 0.081 | 0.0174 |  | 0.104 | 0.0337 | 0.0648 | 0.057 | 0.0327 | 0.028 | 0.0247 |  |  | 0.0564 |  |  | 0.0027
4 | C[C@@H](c1ccc2nccn2c1)n1nnc2ncc(-c3cnn(C)c3)nc21 [Savolitinib] + CC1(C)CCC(CN2CCN(c3ccc(C(=O)NS(=O)(=O)c4ccc(NCC5CCOCC5)c([N+](=O)[O-])c4)c(Oc4cnc5[nH]ccc5c4)c3)CC2)=C(c2ccc(Cl)cc2)C1 [Venetoclax] (first compound max 1 µM, 7x7, partner max 1 µM) | -0.0687 | -0.0144 | -0.0389 | -0.0357 | -0.047 | -0.102 | -0.0234 | -0.0904 | -0.0289 | -0.0259 | -0.0506 | -0.0416 | 0.113 | 0.2 | 0.108 | 
5 | C[C@@H](c1ccc2nccn2c1)n1nnc2ncc(-c3cnn(C)c3)nc21 [Savolitinib] + Cc1c2c(nn1C)CSCc1cc(n(C)n1)CSc1cc(c3ccccc3c1)OCCCc1c(C(=O)O)n(C)c3c-2c(Cl)ccc13 [AZD5991] (first compound max 1 µM, 7x7, partner max 1 µM) | -0.0722 | 0.0649 | -0.056 | -0.0593 | 0.0064 | -0.049 | 0.0093 | -0.0946 | -0.0232 | -0.0405 | 0.003 | 0.0095 | 0.0276 | 0.204 | 0.193 | 
6 | Cn1cnc2c(F)c(Nc3ccc(Br)cc3Cl)c(C(=O)NOCCO)cc21 [Selumetinib] + C=CCn1c(=O)c2cnc(Nc3ccc(N4CCN(C)CC4)cc3)nc2n1-c1cccc(C(C)(C)O)n1 [AZD1775] (first compound max 10 µM, partner max 1 µM) | 0.0116 | -0.0295 | -0.015 | -0.0286 | -0.115 | -0.0064 | -0.0042 | -0.0275 | 0.0116 | -0.0072 | -0.03 | -0.061 | -0.0064 | 0.47 | 0.826 | 
7 | Cn1cnc2c(F)c(Nc3ccc(Br)cc3Cl)c(C(=O)NOCCO)cc21 [Selumetinib] + CC(C)n1c(=O)n(C)c2cnc3cc(F)c(-c4ccc(OCCCN5CCCCC5)nc4)cc3c21 [AZD1390] (first compound max 10 µM, 7x7, partner max 0.3 µM) | 0.0025 | -0.0123 | -0.0109 | -0.0129 | -0.016 | 0.0398 | -0.0066 | -0.0557 | -0.0561 | -0.0577 | 0.0473 | -0.0587 | -0.003 | 0.431 | 0.466 | 
8 | Cn1cnc2c(F)c(Nc3ccc(Br)cc3Cl)c(C(=O)NOCCO)cc21 [Selumetinib] + CCN(CCO)CCCOc1ccc2c(Nc3cc(CC(=O)Nc4cccc(F)c4)[nH]n3)ncnc2c1 [AZD2811] (first compound max 10 µM, 7x7, partner max 1 µM) | -0.0688 | -0.0022 | 0.0176 | 0.0289 | -0.0377 | -0.0136 | 0.0021 | -0.0465 | -0.0168 | 0.0334 | -0.0495 | -0.027 | -0.0019 | 0.405 | 0.874 | 
9 | Cn1cnc2c(F)c(Nc3ccc(Br)cc3Cl)c(C(=O)NOCCO)cc21 [Selumetinib] + C[C@@H]1COCCN1C2=NC(=NC(=C2)C3(CC3)[S@](=N)(=O)C)C4=C5C=CNC5=NC=C4 [AZD6738] (first compound max 10 µM, 7x7, partner max 10 µM) | -0.0152 | -0.0564 | 0.0621 | -0.0093 | -0.0217 | -0.0802 | -0.0511 | -0.107 | -0.017 | -0.0349 | -0.0582 | 0.0263 | -0.0228 | 0.487 | 0.865 | 
